{"source": "paper PMC6468747", "about": "(Cancers, 2019)", "key": {"[1]": {"assay": "Plasma pharmacokinetics after single IV and PO dosing", "type": "in vivo, female CD1 mice", "details": "female, CD-1, mouse, plasma; for AUC(0-inf): read-out: AUC(0-inf)", "method": "5. In vivo Pharmacokinetics (PK) Determination: These studies were Performed by Charles River Laboratories (CRL), Discovery Services, 251 Ballardvale Street, Wilmington, MA 01887, USA.\nThe PK studies were performed according to the guidelines and approval of CRL Institutional Animal Care and Use Committee (IACUC) under IACUC approval no: P04172013.\nA total of sixty‐four naïve female CD‐1 mice (including 6 spare animals) were received from Charles River Laboratories, Kingston, NY. Following an acclimation period, the animals were assigned to the study based on acceptable health as determined by a staff veterinarian. For dosing, animals were placed into six groups as detailed in the study design table below. All animals were fasted overnight prior to dosing and food was returned after the 4‐h post‐dose blood collections.\nEach animal in Groups 1, 3 and 5 received a single administration of prepared test article by intravenous tail administration at a target dose level of 2 mg/kg and dose volume of 10 mL/kg. Each animal in Groups 2, 4 and 6 received a single administration of prepared test article by oral gavage at a target dose level of 20 mg/kg and at a dose volume of 10 mL/kg. Dosing was performed on August 13, 2015 as detailed in the study protocol and was completed without incident. Dose administration […]\nFollowing dosing and at each sample collection time\nGroup Mices Test Compound Level Conc. Volume Dose Vehicle Route […]\nInterim blood samples were collected in a leapfrog design from each animal by puncture of a submandibular vein and a terminal blood sample was collected from each animal by intracardiac puncture following euthanasia with CO2 as outlined in the sample collection table below.\nAll blood samples were transferred into tubes containing K2EDTA anticoagulant and placed on wet ice immediately after collection until centrifuged at 2200 × g for 10 min at […] to isolate plasma.\nThe resulting plasma was transferred to individual polypropylene tubes in a 96‐well plate format and immediately placed on dry ice until storage at nominally […] before transfer to the Test Facility’s bioanalysis group for concentration and HPLC analysis. Individual blood collection times are […]\nTable S4. Sample Collections.\nCollection Information Whole Blood for Plasma Whole Blood for Plasma\nSubgroup A (n = 3) 5 min & 1 h post‐dose 8 h post‐dose\nSubgroup B (n = 3) 15 min & 4 h post‐dose 12 h post‐dose\nSubgroup C (n = 3) 30 min & 6 h post‐dose 24 h post‐dose\nSubgroup D (n = 2) Not applicable 2 h post‐dose\nSubgroup A (n = 3) 15 min & 2 h post‐dose 8 h post‐dose\nSubgroup B (n = 3) 30 min & 4 h post‐dose 12 h post‐dose\nSubgroup C (n = 3) 1 hr & 6 h post‐dose 24 h post‐dose\nCollection conditions K2EDTA K2EDTA\nCollection route Submandibular Intracardiac puncture\nVolume/Time point 100 μL Maximum volume\nThe plasma samples for Groups 1‐6, Subgroups A‐C were analyzed for test article concentration using a Research Grade LC MS/MS Assay (RGA‐Level 1). The bioanalytical report, including plasma […]\nPharmacokinetic parameters were estimated from the plasma concentration‐time data using standard non‐compartmental methods and utilizing suitable analysis software (Watson 7.2 Bioanalytical LIMS, Thermo Electron Corp). Parameters were estimated using nominal sampling times relative to the start of each dose administration (within an acceptable tolerance limit).\nConcentrations below the limit of quantification were excluded from the pharmacokinetic analysis.\nThe area under the plasma test item concentration versus time curve (AUC) was calculated using the linear‐log‐linear trapezoidal method. When practical, the terminal elimination phase of each concentration versus time curve was identified using at least the final three observed concentration values. The slope of the terminal elimination phase was determined using log linear regression on the unweighted concentration data.\nParameter Description of Parameter […]"}, "MDA-MB-231 cells [2]": {"test_system": "MDA-MB-231 cells", "assay": "MTT cell viability with/without siMnk1 knockdown", "type": "cell-based, human", "details": "5 μM", "method": "Small interfering RNA targeting the Mnk1 (siMnk1) gene and corresponding scramble siRNA sequence (siControl) were purchased from Ambion ((Waltham, MA, USA). Briefly, 3 × 10^5 MDA-MB-231 cells were seeded into 6 cm cell culture dish (Corning®) and incubated for 24 h in for normal culture medium. Subsequently, cells were subjected to transfection with 100 nM of siMnk1 or siControl using the RNAi Human/Mouse Starter Kit (Qiagen, (Qiagen, Hilden, Germany) following the manufacturer’s instructions for 48 h. For cell growth assay experiments, transfection complex was removed after 48 h, cells were washed twice with phosphate-buffered saline and replaced with normal growth medium. Twenty-four hour later, 5 μM of VNLG-152R was added to the growth media and harvested after 24 h. Non-transfected cells were also treated with 5 μM of VNLG-152R for 24 h. Protein silencing was confirmed by immunoblot analysis."}, "MDA-MB-231 cells [3]": {"test_system": "MDA-MB-231 cells", "assay": "Real time cell invasion assay (xCELLigence)", "type": "cell-based, human", "details": "2.5, 5 and 10 μM, 24 h pre-treatment", "method": "Real-time measurement of cell invasion was performed using the xCELLigence RTCA DP device (ACEA Biosciences, San Diego, CA, USA). MDA-MB-231 cells were treated with VNLG-152 (2.5, 5, and 10 μM) for 24 h, cells being treated with VNLG-152 when they were plated. Subsequently, cells were seeded (75,000/well) onto 16-well microelectronic censored, two chamber Matrigel-coated trans-well plates (CIM-plates) containing the respective drug in serum-free condition. Medium containing 10% serum (chemo-attractant) was added to the bottom wells. Invasion of cells was measured from the interaction of cells with the electrodes on the bottom surface of top chamber and represented as a change in cell index (CI), an arbitrary unit derived from the relative change in electrical impedance across microelectronic sensor arrays. The electrical impedance was captured every 3 min for an experimental duration of 24 h. The rate of invasion is expressed as the CI or the change in electrical impedance at each timepoint. Values are expressed as the ±SEM of the duplicate wells from three independent experiments."}, "MDA-MB-231-Luc cells": {"test_system": "MDA-MB-231-Luc cells", "assay": "Experimental lung metastasis assay", "type": "in vivo, SCID mice", "details": "20 mg/kg IP, 2 weeks, IVIS luciferase signal in lung", "method": "The MDA-MB-231-luc cells were the kind gift of Dr. Stuart Martin (UMB). Cells were grown in DMEM with 10% FBS, hygromycin and G418 to subconfluence (~50–70%) and then trypsinized, washed, and resuspended in PBS. 1 × 10^6 cells were injected IV in a volume of 100 µL. Mice were treated for 14 days with vehicle or VNLG-152 by IP injection at doses of 20 mg/kg. The luciferase signals in the mice were detected and photographed using an IVIS in vivo image system on days 0, 1 and 14 [81]."}}, "note": "Where two headings read alike, the source gives them in different places.", "data": [{"compound": "CC1=C(/C=C/C(C)=C/C=C/C(C)=C/C(=O)Nc2ccc(F)cc2)C(C)(C)CCC1n1ccnc1", "note": "(racemic) [VNLG-152R, 4-(±)-(1H-imidazol-1-yl)-N-(4-fluorophenyl)-(E)-retinamide]", "values": [{"measurement": "bioavailability", "setting": "[1]; PO 20 mg/kg vs IV 2 mg/kg, read-out: F (%) oral bioavailability", "result": 121, "unit": "%"}, {"measurement": "half-life", "setting": "[1]; IV, 2 mg/kg", "result": 1.92, "unit": "h"}, {"measurement": "AUC(0-inf)", "setting": "[1]; IV, 2 mg/kg", "result": 1.13, "unit": "µg·h/mL"}, {"measurement": "half-life", "setting": "[1]; PO, 20 mg/kg", "result": 9.25, "unit": "h"}, {"measurement": "AUC(0-inf)", "setting": "[1]; PO, 20 mg/kg", "result": 13.7, "unit": "µg·h/mL"}, {"measurement": "Cmax", "setting": "[1]; PO, 20 mg/kg, read-out: Cmax", "result": 3.75, "unit": "µg/mL"}, {"measurement": "reduction in cell viability", "setting": "MDA-MB-231 cells [2]; non-transfected MDA-MB-231 cells", "result": "~ 75%"}, {"measurement": "cell viability in cells harboring Mnk1 knockdown", "setting": "MDA-MB-231 cells [2]; siMnk1-transfected MDA-MB-231 cells", "result": "did not show any significant decrease in cell viability"}, {"measurement": "invasive ability (cell index)", "setting": "MDA-MB-231 cells [3]", "result": "significantly lower"}, {"measurement": "inhibition of metastasis", "setting": "MDA-MB-231-Luc cells", "result": "~ 80%"}]}]}
